# “And” between values parts separate entries of the source, which are not always exact repeats. Identical values can stand only once. Like-named read-outs stand apart in the source and are kept apart here. Where a SMILES comes first, the peptide text is derived from it.
# Tested on: cytochrome c
# Format: cell-based, mouse
# [1] = composite Z-score vs mock-treated (DMSO) wells, concentration of each compound in μM
# [2] = normalized score (composite Z-score vs DMSO mock-treated wells), compound concentration (μM)
smiles,measurement,setting,value
O=C(CCCN1CC=C(n2c(=O)[nH]c3ccccc32)CC1)c1ccc(F)cc1 [droperidol],cyt c (composite Z-score vs DMSO),,0.270 and 0.161
CCCCCCCC/C=C/CCCCCCCCOP(=O)([O-])OCC[N+](C)(C)C [elaidylphosphocholine],cyt c,[1],−0.840
CCCSP(=O)(OCC)SCCC [ethoprop],cyt c,,0.271
CCc1cccc(CC)c1NC(=O)CN(CC(=O)O)CC(=O)O [etifenin],cyt c,[1],0.092
O=C(OCCOCCO)c1ccccc1Nc1cccc(C(F)(F)F)c1 [etofenamate],cyt c,,−0.030
CCOC(=O)C1=C(C)NC(C)=C(C(=O)OC)C1c1cccc(Cl)c1Cl (stereo not drawn) [felodipine],cyt c,[1],−0.956
CC(C)(C(=O)O)c1ccc(C(O)CCCN2CCC(C(O)(c3ccccc3)c3ccccc3)CC2)cc1 (stereo not drawn) [fexofenadine],cyt c,,−0.751
OC(Cn1cncn1)(Cn1cncn1)c1ccc(F)cc1F [fluconazole],cyt c (composite Z-score vs DMSO),,0.741
CC1(C)O[C@@H]2C[C@H]3[C@@H]4C[C@H](F)C5=CC(=O)C=C[C@]5(C)[C@H]4[C@@H](O)C[C@]3(C)[C@]2(C(=O)CO)O1 [flunisolide],cyt c,,0.715
same,cyt c (composite Z-score vs DMSO),,−0.257
OCCN1CCN(CCCN2c3ccccc3Sc3ccc(C(F)(F)F)cc32)CC1 [fluphenazine],cyt c (composite Z-score vs DMSO mock-treated wells),,−0.074
COCCCC/C(=N\OCCN)c1ccc(C(F)(F)F)cc1 [fluvoxamine],cyt c,,0.483
Cc1cc(O)c(C=O)c2c1C(=O)Oc1c(COC(=O)/C=C/C(=O)O)c(O)c(C(=O)O)c(C)c1O2 [fumarprotocetraric acid],cyt c,[1],0.505
NS(=O)(=O)c1cc(C(=O)O)c(NCc2ccco2)cc1Cl [furosemide],cyt c (composite Z-score vs DMSO mock-treated wells),,0.234 and 0.342
COc1ccc(-c2ccc(=N)n(CCCC(=O)O)n2)cc1 [gabazine],cyt c,,−0.094
COc1ccc2c3c1O[C@H]1C[C@@H](O)C=C[C@@]31CCN(C)C2 [galanthamine],cyt c,,−1.112
CC(C)=CCC[C@]1(C)C=Cc2c(O)c3c(c(CC=C(C)C)c2O1)O[C@]12C(=C[C@@H]4C[C@H]1C(C)(C)O[C@@]2(C/C=C(/C)C(=O)O)C4=O)C3=O [gambogic acid],cyt c,[1],−5.596
CO/N=C1\CN(c2nc3c(cc2F)c(=O)c(C(=O)O)cn3C2CC2)CC1CN (stereo not drawn) [gemifloxacin],cyt c,[1],0.009
O=c1c(-c2ccc(O)cc2)coc2cc(O)cc(O)c12 [genistein],cyt c (composite Z-score vs DMSO),,0.295
O=C(O)c1cc(O)ccc1O [gentisic acid],cyt c (composite Z-score vs DMSO mock-treated wells),,0.210
CC(C)=CCC/C(C)=C/COC(=O)C=Cc1ccccc1 [geranyl cinnamate],cyt c,[1],−0.107
Cc1ccc(S(=O)(=O)NC(=O)NN2CC3CCCC3C2)cc1 (stereo not drawn) [gliclazide],cyt c,[1],0.147
Cc1cnc(C(=O)NCCc2ccc(S(=O)(=O)NC(=O)NC3CCCCC3)cc2)cn1 [glipizide],cyt c (composite Z-score vs DMSO),,0.287
N[C@@H](CCC(=O)N[C@@H](CS)C(=O)NCC(=O)O)C(=O)O [glutathione],cyt c (composite Z-score vs DMSO),,−0.913
C[N+]1(C)CCC(OC(=O)C(O)(c2ccccc2)C2CCCC2)C1 (stereo not drawn) [glycopyrrolate],cyt c,,0.260
NCCc1c[nH]cn1 [histamine],cyt c (composite Z-score vs DMSO),,0.016
CC[C@H]1CN2CC[C@H]1C[C@H]2[C@H](O)c1ccnc2ccc(OC)cc12 [hydroquinine],cyt c,[1],0.004
Oc1ccc(O)cc1 [hydroquinone],cyt c (composite Z-score vs DMSO),,−4.999
OCCOCCN1CCN(C(c2ccccc2)c2ccc(Cl)cc2)CC1 (stereo not drawn) [hydroxyzine],cyt c,[2],0.258
CN1[C@@H]2CC[C@H]1C[C@@H](OC(=O)[C@H](CO)c1ccccc1)C2 [hyoscyamine],cyt c,,0.319
same,cyt c (composite Z-score vs DMSO mock-treated wells),,0.235
O=c1[nH]cnc2nc[nH]c12 [hypoxanthine],cyt c,,0.608
COc1ccc(-c2oc3c(CC=C(C)C)c(O[C@@H]4O[C@H](CO)[C@@H](O)[C@H](O)[C@H]4O)cc(O)c3c(=O)c2O[C@@H]2O[C@@H](C)[C@H](O)[C@@H](O)[C@H]2O)cc1 [icariin],cyt c,[1],0.073
C[C@@H](O)[C@H]1C(=O)N2C(C(=O)O)=C(SCCN=CN)C[C@H]12 [imipenem],cyt c,,−0.330
CC(=O)N(CC(O)CN(C(C)=O)c1c(I)c(C(=O)NCC(O)CO)c(I)c(C(=O)NCC(O)CO)c1I)c1c(I)c(C(=O)NCC(O)CO)c(I)c(C(=O)NCC(O)CO)c1I (stereo not drawn) [iodixanol],cyt c,[1],−0.092
COCC(=O)Nc1c(I)c(C(=O)NCC(O)CO)c(I)c(C(=O)N(C)CC(O)CO)c1I (stereo not drawn) [iopromide],cyt c,[1],0.263
O=C(NCC(O)CO)c1c(I)c(C(=O)NCC(O)CO)c(I)c(N(CCO)C(=O)CO)c1I (stereo not drawn) [ioversol],cyt c,,0.129
Clc1ccc(C(Cn2ccnc2)OCc2c(Cl)cccc2Cl)c(Cl)c1 (stereo not drawn) [isoconazole],cyt c,[2],−0.572
O=C(/C=C/c1ccc(O)cc1)c1ccc(O)cc1O [isoliquiritigenin],cyt c (composite Z-score),,0.089
COc1c2ccoc2c(OC)c2oc(=O)ccc12 [isopimpinellin],cyt c,,0.230
COC(=O)C1=C(C)NC(C)=C(C(=O)OC(C)C)C1c1cccc2nonc12 (stereo not drawn) [isradipine],cyt c,[1],0.236
O=C1C=CC(=O)c2c(O)cccc21 [juglone],cyt c (composite Z-score vs DMSO),,0.266
CC(=O)N1CCN(c2ccc(OCC3COC(Cn4ccnc4)(c4ccc(Cl)cc4Cl)O3)cc2)CC1 (stereo not drawn) [ketoconazole],cyt c,,0.406
same,cyt c (composite Z-score vs DMSO mock-treated wells),,0.109
CC(C)=CCC[C@@H](C)[C@H]1CC[C@@]2(C)C3=C(CC[C@]12C)[C@@]1(C)CC[C@H](O)C(C)(C)[C@@H]1CC3 [lanosterol],cyt c,[1],0.383
O=C1C=C(O)C(=O)c2ccccc21 [lawsone],cyt c,,−0.273
NCCCC[C@H](N[C@@H](CCc1ccccc1)C(=O)O)C(=O)N1CCC[C@H]1C(=O)O [lisinopril],cyt c (composite Z-score vs DMSO),,0.265 and 0.412
NCCCC[C@H](N)C(=O)N[C@@H](Cc1ccccc1)C(=O)N[C@@H](Cc1ccc(O)cc1)C(=O)O [lysylphenylalanyltyrosine] (H-Lys-Phe-Tyr-OH),cyt c,[1],0.240
C[C@H]1[C@H](C)CC[C@]2(C(=O)O)CC[C@]3(C)C(=CC[C@@H]4[C@@]5(C)C[C@@H](O)[C@H](O)[C@@](C)(CO)[C@@H]5[C@H](O)C[C@]43C)[C@H]12 [madecassic acid],cyt c,[1],0.241
CC(=O)O[C@]1(C(C)=O)CC[C@H]2[C@@H]3C=C(C)C4=CC(=O)CC[C@]4(C)[C@H]3CC[C@@]21C [megestrol acetate],cyt c,[1],0.810
CC1CCC(C(C)C)C(O)C1 (stereo not drawn) [menthol],cyt c,,−0.074
Cc1cccc(C)c1NC(=O)C1CCCCN1C (stereo not drawn) [mepivacaine],cyt c,[1],−0.084
CN1CCCCC1CCN1c2ccccc2Sc2ccc([S+](C)[O-])cc21 (stereo not drawn) [mesoridazine],cyt c (composite Z-score),,−0.121
C=N[C@@H](C(=O)N[C@@H]1C(=O)N2[C@@H]1SC(C)(C)[C@@H]2C(=O)O)c1ccccc1 [metampicillin],cyt c,[1],0.821
CN(C)C(=N)N=C(N)N [metformin],cyt c (composite Z-score vs DMSO),,0.597
Cn1cc[nH]c1=S [methimazole],cyt c (composite Z-score vs DMSO),,1.745
same,cyt c (composite Z-score),,−0.372
Cc1cccc(C)c1OCC(C)N (stereo not drawn) [mexiletine],cyt c,,1.114
CN1CCN2c3ccccc3Cc3ccccc3C2C1 (stereo not drawn) [mianserin],cyt c,,0.027
CN1CCN2c3ccccc3Cc3ccccc3C2C1 (stereo not drawn) [mianserine],cyt c,,0.473
CN(C/C=C/c1ccccc1)Cc1cccc2ccccc12 [naftifine],cyt c,,0.645
COc1ccccc1N1CCN(CC(O)COc2cccc3ccccc23)CC1 (stereo not drawn) [naftopidil],cyt c,[1],0.382
Oc1ccc2c3c1O[C@H]1[C@@H](O)CC[C@@]4(O)[C@@H](C2)N(CC2CCC2)CC[C@]314 [nalbuphine],cyt c,,0.276
same,cyt c (composite Z-score vs DMSO),,−0.613
C=CCN1CC[C@]23c4c5ccc(O)c4O[C@H]2C(=O)CC[C@@]3(O)[C@H]1C5 [naloxone],cyt c,,0.362 and 0.610
COc1ccc(CCC(=O)c2c(O)cc(O[C@@H]3O[C@H](CO)[C@@H](O)[C@H](O)[C@H]3O[C@@H]3O[C@@H](C)[C@H](O)[C@@H](O)[C@H]3O)cc2O)cc1O [neohesperidin dihydrochalcone],cyt c,,0.454
COc1ccc2c3c1O[C@H]1[C@@H](O)CC=C4[C@@H](C2)N(C)CC[C@]431 [neopine],cyt c,,0.421
CCN[C@@H]1C[C@H](N)[C@@H](O[C@H]2OC(CN)=CC[C@H]2N)[C@H](O)[C@H]1O[C@H]1OC[C@](C)(O)[C@H](NC)[C@H]1O [netilmicin],cyt c,[2],0.156
O=C(O)c1cccnc1 [niacin],cyt c (composite Z-score vs DMSO),,0.736 and 1.132
CC1CS(=O)(=O)CCN1/N=C/c1ccc([N+](=O)[O-])o1 (stereo not drawn) [nifurtimox],cyt c,,0.004
COc1ccc(-c2cc(=O)c3c(OC)c(OC)c(OC)c(OC)c3o2)cc1OC [nobiletin],cyt c,,0.396
C#C[C@]1(O)CC[C@H]2[C@@H]3CCC4=CC(=O)CC[C@@H]4[C@H]3CC[C@@]21C [norethindrone],cyt c,,0.903
same,cyt c (composite Z-score vs DMSO mock-treated wells),,0.056
C#C[C@]1(O)CC[C@H]2[C@@H]3CCC4=C(CCC(=O)C4)[C@H]3CC[C@@]21C [norethynodrel],cyt c,,−0.145
same,cyt c (composite Z-score vs DMSO mock-treated wells),,−0.058
CNCCC=C1c2ccccc2CCc2ccccc21 [nortriptyline],cyt c (composite Z-score vs DMSO),,0.157 and 0.136
CC1(C)CC[C@]2(C(=O)O)CC[C@]3(C)C(=CC[C@@H]4[C@@]5(C)CC[C@H](O)C(C)(C)[C@@H]5CC[C@]43C)[C@@H]2C1 [oleanolic acid],cyt c,,0.866
"COC(=O)Nc1nc2ccc([S+]([O-])c3ccccc3)cc2[nH]1 (stereo not drawn) [oxfendazole, reference compound]",cyt c,[1],−0.224
C=CCOc1ccccc1OCC(O)CNC(C)C (stereo not drawn) [oxprenolol],cyt c,,0.047
CCN(CC)CC#CCOC(=O)C(O)(c1ccccc1)C1CCCCC1 (stereo not drawn) [oxybutynin],cyt c,,−0.352
O=CC=Cc1ccc(O)cc1 [p-hydroxycinnamaldehyde],cyt c,[1],−0.079
COc1ccc(C(C)=O)c(O)c1 [paeonol],cyt c,,0.306
Oc1ccc(Cl)cc1 [parachlorophenol],cyt c,,0.036
CC(C)(C)NC[C@H](O)COc1ccccc1C1CCCC1 [penbutolol],cyt c,[2],0.099
